Data: paper PMC7395068, “The evolution of strategies to minimise the risk of human drug-induced liver injury (DILI) in drug discovery and development” (Archives of Toxicology, 2020)
Where two headings read alike, the source gives them in different places.

Key:
[1] = ref Chen 2011; cited from earlier work
[2] = plasma free fraction; cited from earlier work
[3] = cited from earlier work
[4] = Plasma free fraction (fu) and unbound Cmax (Cmax,u); type: in vitro ADME, human; conditions: unbound plasma Cmax
Experimental: The prediction of DILI severity was evaluated further using the 3D combined HCI assays using plasma-free fraction. The majority of fu values were obtained from literature, when unavailable in-house prediction was utilised. Unbound plasma Cmax concentrations (Cmax,u) were derived by multiplying total plasma Cmax with the corresponding free fraction (fu) for each compound.

[5] = read-out: Human plasma Cmax; total plasma Cmax.tot, median of 9 literature references; cited from earlier work
[6] = tested on: THLE-Null and THLE-3A4 cells; conditions: In vitro Assay; ref Gustafsson 2014; cited from earlier work
[7] = tested on: primary human hepatocytes, NIH3T3 fibroblasts, BSEP, CYP3A4; conditions: cited from earlier work
[8] = tested on: PHH; conditions: cited from earlier work
[9] = cited from earlier work; remark: listed apart in the source
[10] = tested on: HepG2 cells, primary human hepatocytes; conditions: In vitro Assay; ref Garside 2014; cited from earlier work
[11] = tested on: rBsep; conditions: In vitro Assay; ref Dawson 2012; cited from earlier work
[12] = tested on: HepaRG spheroids; assay: Combined HCI (HCS) and cellular ATP 3D assay in HepaRG spheroids; conditions: for AC50 / minimal effective concentration: Homo sapiens
[13] = tested on: human hepatocytes; conditions: cited from earlier work
[14] = tested on: HepG2 cells; conditions: cited from earlier work
[15] = tested on: PHH spheroids; conditions: cited from earlier work
[16] = tested on: THLE or HepG2 cells, isolated mitochondria, BSEP; conditions: cited from earlier work
[17] = tested on: hLiMTs; assay: Combined HCI (HCS) and cellular ATP 3D assay in hLiMTs; conditions: for AC50 / minimal effective concentration: Homo sapiens
[18] = tested on: HepG2 C3A spheroid, BSEP, Glu/Gal in HepG2 cells, bioactivation; conditions: cited from earlier work
[19] = tested on: hLiMTs; conditions: cited from earlier work
[20] = In vitro Assay, ref Schadt 2015
[21] = In vitro Assay, ref Proctor 2017
[22] = Microtissue model structural based (HCI), combined HCS and ATP, MEC < 25 × Cmax.tot cut-off
[23] = In vitro Assay, ref Persson 2013
[24] = Modeled in vitro assays (cytotoxicity, mitochondrial dysfunction, BSEP), ref Aleo et al. 2019

## CCc1nn(CCCN2CCN(c3cccc(Cl)c3)CC2)c(=O)n1CCOc1ccccc1 [nefazodone, reference compound]
[1]
  DILI Score (FDA) (1-8): 8
[2]
  fu: 0.010
[3]; Chen et al. 2016 or literature alignment, ref Chen et al. 2016
  Assigned DILI category: 3
[3]; […]
  In vivo DILI: +VE
[3]; ref Aleo 2019
  In vivo DILI: +VE
[3]; ref Dawson 2012
  In vivo DILI: +VE
[3]; ref Garside 2014
  In vivo DILI: +VE
[3]; ref Gustafsson 2014
  In vivo DILI: +VE
[3]; ref Persson 2013
  In vivo DILI: +VE
[3]; ref Proctor 2017
  In vivo DILI: +VE
[3]; ref Schadt 2015
  In vivo DILI: +VE
[3]; ref Vorrink 2018
  In vivo DILI: +VE
[3]; ref Williams 2019
  In vivo DILI: +VE
[3]; ref Xu 2008
  In vivo DILI: +VE
[4]
  Human plasma Cmax,u: 0.043 µM
[5]
  Cmax: 4.25 µM
[6]
  THLE-Null: +VE
  THLE-Null/3A4: +VE
[7]; BSEP & Metabolism based, ref Schadt et al. 2015
  DILI in vitro assay prediction, Schadt (2015): +VE
[7]; [20]
  Cellular toxicity (3T3 cells): -VE
  Combined Assay: +VE
  GSH adduct HML: +VE
  Hepatocyte cellular toxicity: +VE
  MitoTox 3T3: +VE
  TDI CYP3A4: +VE
  hBSEP inhibition: +VE
[8]; 2D PHH, ATP, IC50 < 100 × Cmax.tot, ref Proctor et al. 2017
  PHH/100xCmax, Proctor (2017): +VE (IC50 < 100 × Cmax.tot)
[8]; 2D PHH, ATP, IC50 threshold 100 µM, ref Proctor et al. 2017
  PHH/100uM, Proctor (2017): +VE (IC50 threshold of 100 µM)
[8]; [21]
  PHH ATP <100uM: +VE (IC50 threshold of 100 µM)
[9]; LTKB DILIrank category, ref Chen et al. 2016
  DILI severity category (Chen et al. [2016]): Most
[9]; human DILI classification, LTKB DILIrank, ref Chen et al. 2016
  DILI severity category (Chen 2016): Most
[9]; human DILI severity, ref Chen et al.
  DILI severity category: Most
[9]; ref Chen 2016
  DILI +VE (5-8), DILI -VE (-4): +VE
  DILI severity category: vMost-DILI-Concern
[10]
  Cluster 1-6 +VE Assay: +VE
[11]
  Inhibition of rBsep cutoff<1& cmax u>.2: +VE
  Inhibition of rBsep cutoff<3: +VE
[12]; HepaRG, ATP endpoint, cut-off <25x Avg Cmax
  HepaRG <25x Avg Cmax ATP: +ve
[12]; HepaRG, ATP endpoint, cut-off <100x Avg Cmaxu
  HepaRG <100x Avg Cmaxu ATP: -ve
[12]; HepaRG, HCS endpoints, cut-off <25x Avg Cmax
  HepaRG <25x Avg Cmax HCS: +ve
[12]; HepaRG, HCS endpoints, cut-off <100x Avg Cmaxu
  HepaRG <100x Avg Cmaxu HCS: -ve
[12]; HepaRG, all endpoints (ATP and HCS), cut-off <25x Avg Cmax
  HepaRG <25x Avg Cmax All: +ve
[12]; HepaRG, all endpoints, Cmax max used
  HepaRG Cmax max All: +ve
[12]; HepaRG, all endpoints, Cmax min used
  HepaRG Cmax min All: +ve
[12]; HepaRG, all endpoints, cut-off <10 uM
  HepaRG <10 uM All: +ve (<10 uM)
[12]; HepaRG, all endpoints, cut-off <100x Avg Cmaxu
  HepaRG <100x Avg Cmaxu All: -ve
[12]; HepaRG, read-out: ATP endpoint AC50
  AC50: 19.4 µM
[12]; HepaRG, read-out: ATP endpoint MEC
  minimal effective concentration: 11.6 µM
[12]; HepaRG, read-out: HCS endpoint AC50
  AC50: 23.8 µM
[12]; HepaRG, read-out: HCS endpoint MEC
  minimal effective concentration: 5.67 µM
[12]; [22]
  DILI prediction HepaRG spheroids (HCS-MEC): +VE (MEC < 25 × Cmax.tot cut-off)
[13]; In vitro Assay, ref Xu 2008
  Structural based (HCI): +VE
[13]; Structural based (HCI), human hepatocytes, ref Xu et al. 2008
  DILI in vitro assay prediction, Xu (2008): +VE
[14]; [23]
  Cluser analysis: +VE
  Structural based (HCI): +VE
[14]; Structural based (HCI), HepG2, ref Persson et al. 2013
  DILI in vitro assay prediction, Persson (2013): +VE
[15]; In vitro Assay, ref Vorrink 2018
  hLiMTs ATP <20 x Cmax: +VE (IC20 < 20 × Cmax.tot cut-off)
[15]; PHH spheroids, ATP, 14 days, IC20 < 20 × Cmax.tot, ref Vorrink et al. 2018
  DILI in vitro assay prediction, Vorrink (2018): +VE (IC20 < 20 × Cmax.tot cut-off)
[16]; In vitro Assay, ref Aleo 2019
  Partition Hybrid HRM Score: +VE
  Ro2 Hybrid HRM Score: +VE
[16]; [24]
  Partition Hybrid HRM Score ≥4, Aleo (2019): +VE (Partition Hybrid HRM Score ≥4)
  Partition Hybrid HRM Score ≥8, Aleo (2019): +VE (Partition Hybrid HRM Score ≥8)
  Rule of Two hybrid HRM Score ≥3, Aleo (2019): +VE (Rule of Two hybrid HRM Score ≥3)
  Rule of Two hybrid HRM Score ≥8, Aleo (2019): +VE (Rule of Two hybrid HRM Score ≥8)
[17]; read-out: ATP endpoint AC50
  AC50: 12.1 µM
[17]; read-out: ATP endpoint MEC
  minimal effective concentration: 8.98 µM
[17]; read-out: HCS endpoint AC50
  AC50: 23.4 µM
[17]; read-out: HCS endpoint MEC
  minimal effective concentration: 13.8 µM
[17]; [22]
  DILI prediction hLiMTs (HCS-MEC): +VE (MEC < 25 × Cmax.tot cut-off)
[17]; hLiMTs, ATP endpoint, cut-off <25x Avg Cmax
  hLiMTs <25x Avg Cmax ATP: +ve
[17]; hLiMTs, ATP endpoint, cut-off <100x Avg Cmaxu
  hLiMTs <100x Avg Cmaxu ATP: -ve
[17]; hLiMTs, HCS endpoints, cut-off <25x Avg Cmax
  hLiMTs <25x Avg Cmax HCS: +ve
[17]; hLiMTs, HCS endpoints, cut-off <100x Avg Cmaxu
  hLiMTs <100x Avg Cmaxu HCS: -ve
[17]; hLiMTs, all endpoints (ATP and HCS), cut-off <25x Avg Cmax
  hLiMTs <25x Avg Cmax All: +ve
[17]; hLiMTs, all endpoints, Cmax max used
  hLiMTs Cmax max All: +ve
[17]; hLiMTs, all endpoints, Cmax min used
  hLiMTs Cmax min All: +ve
[17]; hLiMTs, all endpoints, cut-off <10 uM
  hLiMTs <10 uM All: +ve (<10 uM)
[17]; hLiMTs, all endpoints, cut-off <100x Avg Cmaxu
  hLiMTs <100x Avg Cmaxu All: -ve
[18]; Bayesian modeling, ref Williams et al. 2019
  Bayesian Machine Learning DILI prediction, Williams (2019): +VE
[18]; In vitro Assay, ref Williams 2019
  Bayesian Machine Learning: +VE
[19]; [21]
  hLiMTs ATP <100uM: +VE (IC50 threshold of 100 µM)
[19]; hLiMTs, ATP, IC50 < 100 × Cmax.tot, ref Proctor et al. 2017
  hLiMTs/100xCmax, Proctor (2017): +VE (IC50 < 100 × Cmax.tot)
[19]; hLiMTs, ATP, IC50 threshold 100 µM, ref Proctor et al. 2017
  hLiMTs/100uM, Proctor (2017): +VE (IC50 threshold of 100 µM)
